# Measured values taken from patent US11198713B2, “Agents modulating beta-catenin functions and methods thereof” (FOG PHARMACEUTICALS, INC., priority 2017, dated 2021).
# Where two headings read alike, the source gives them in different places. Numbered stars: 1 amine (or outer) side, 2 acyl side, 3 side chain; on linkers, the order of the positions; unused ones are H or OH. Bridge positions count the residues as written; N and C are the ends. Square brackets hold non-standard residues; d marks the D form. Primed or numbered codes have the meaning given here. Peptide text beside a SMILES is read from it. * marks the point of attachment. MC″ = Monomer C = PyrR, pyrrolidine stapling residue bearing Alloc (allyl carbamate on pyrrolidine N); MB = Monomer B = PyrS, Alloc-pyrrolidine stapling residue (allyl carbamate on pyrrolidine N); R6 = (R)-2-(5-hexenyl)alanine, C=CCCCC[C@@](C)(N[*:1])C(=O)[*:2]; MB(14) = Monomer B = PyrS, Alloc-pyrrolidine stapling residue; MF = Monomer F (SdN), acyclic alkyl-N(Alloc) stapling residue; 3Aminoazetidine3carboxyl = O=C(C1(N[*:1])CN([*:3])C1)[*:2]; Biotin = O=C1N[C@H]2[C@H](CS[C@H]2CCCCC(=O)*)N1; X4 = O=C([C@]1(N[*:1])CCN(CC=[*:3])C1)[*:2]; X3 = O=C([C@@]1(N[*:1])CCN([*:3])C1)[*:2]; PEG3′ = PEG3 linker, CAS# 557756-85-1; X2 = O=C(OCC=CCOC(=O)[*:2])[*:1]; R8 = C=CCCCCCC[C@@](C)(N)C(=O)O; S8 = C=CCCCCCC[C@](C)(N)C(=O)O; Aib = CC(C)(N)C(=O)O
# T1: full-length beta-catenin (Axin site) (Homo sapiens, UniProt P35222)
# T1 construct: 15 nM full-length beta-catenin, 20 nM FITC labeled peptide in buffer
# T1 sequence (P35222 1-781): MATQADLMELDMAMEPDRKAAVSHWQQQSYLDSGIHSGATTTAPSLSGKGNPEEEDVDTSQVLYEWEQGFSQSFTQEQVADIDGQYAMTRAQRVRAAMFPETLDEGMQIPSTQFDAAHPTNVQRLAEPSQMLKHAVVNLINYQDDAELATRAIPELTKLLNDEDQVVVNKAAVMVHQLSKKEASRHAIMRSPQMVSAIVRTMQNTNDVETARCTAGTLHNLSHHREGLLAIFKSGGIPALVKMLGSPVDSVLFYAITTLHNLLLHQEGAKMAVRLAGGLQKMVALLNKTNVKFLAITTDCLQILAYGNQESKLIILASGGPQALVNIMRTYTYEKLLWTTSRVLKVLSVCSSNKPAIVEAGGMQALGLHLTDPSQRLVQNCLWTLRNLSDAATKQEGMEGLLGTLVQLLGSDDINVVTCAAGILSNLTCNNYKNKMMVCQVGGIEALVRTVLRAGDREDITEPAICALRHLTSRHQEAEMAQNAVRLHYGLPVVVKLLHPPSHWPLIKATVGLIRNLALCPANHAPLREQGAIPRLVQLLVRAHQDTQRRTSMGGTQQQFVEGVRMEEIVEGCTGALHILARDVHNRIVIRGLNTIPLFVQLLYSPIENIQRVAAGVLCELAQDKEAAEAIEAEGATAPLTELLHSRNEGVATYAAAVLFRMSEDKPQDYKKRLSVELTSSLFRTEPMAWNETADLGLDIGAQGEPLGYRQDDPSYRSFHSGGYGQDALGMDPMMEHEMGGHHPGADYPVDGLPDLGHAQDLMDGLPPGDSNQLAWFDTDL
# T2: full-length beta-catenin (UniProt P35222 2-781, limits assumed)
# T2 construct: mature; also called full-length ß-Catenin; β-catenin
# T2 sequence (looked up): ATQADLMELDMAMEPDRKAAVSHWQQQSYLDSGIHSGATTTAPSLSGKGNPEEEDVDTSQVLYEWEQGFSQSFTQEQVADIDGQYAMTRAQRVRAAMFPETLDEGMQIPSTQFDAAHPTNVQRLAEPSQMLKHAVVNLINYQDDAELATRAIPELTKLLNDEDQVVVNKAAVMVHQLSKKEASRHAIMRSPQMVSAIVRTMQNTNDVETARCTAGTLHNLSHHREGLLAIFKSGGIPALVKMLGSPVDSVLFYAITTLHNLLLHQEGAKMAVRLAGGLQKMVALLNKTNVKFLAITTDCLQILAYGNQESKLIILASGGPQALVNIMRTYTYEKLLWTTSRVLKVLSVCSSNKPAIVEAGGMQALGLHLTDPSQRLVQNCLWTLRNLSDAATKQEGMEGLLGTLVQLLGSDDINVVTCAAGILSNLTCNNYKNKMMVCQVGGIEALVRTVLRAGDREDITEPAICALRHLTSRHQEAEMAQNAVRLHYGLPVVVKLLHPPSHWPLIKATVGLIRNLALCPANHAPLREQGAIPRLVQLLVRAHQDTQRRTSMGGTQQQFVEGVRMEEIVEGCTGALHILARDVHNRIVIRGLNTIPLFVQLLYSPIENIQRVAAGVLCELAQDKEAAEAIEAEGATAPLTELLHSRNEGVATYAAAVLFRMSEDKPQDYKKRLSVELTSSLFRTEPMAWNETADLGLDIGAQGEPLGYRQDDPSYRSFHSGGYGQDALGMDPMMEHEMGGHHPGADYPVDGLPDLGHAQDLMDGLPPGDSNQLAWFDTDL
# How the values were obtained:
# [1] = target: T1, full-length beta-catenin (Axin site); assay: Competition fluorescence polarization assay (Axin site probe); format: binding; settings: competition fluorescence polarization, Table 2; read-out: in vitro FP EC50
# Procedure, shortened: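 Competition FP: 15 nM full-length β-catenin pre-incubated 5 min with 20 nM FITC-labelled stapled Axin-site peptide, then titrated peptide added (3-fold series from 5 μM) for 15 min in the dark. Buffer 50 mM Tris pH 8.0, 250 mM NaCl, 2% glycerol, 0.5 mM EDTA; duplicate reads.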
# [2] = Solubility in DPBS (A280 of supernatant); format: physicochemical; settings: DPBS
# Protocol: Suitable assays for assessing solubility are widely known in the art and can be utilized in accordance with the present disclosure. In some embodiments, in an exemplary protocol, dried peptide was reconstituted in DPBS (DPBS, 1×, cell culture grade, Sigma D8537) in triplicate, vortexed, sonicated and then centrifuged. Absorbance of the supernatant was measured at A280 (Nanodrop 2000) and the concentration was determined using the extinction coefficient for tryptophan. Exemplary solubility data are presented in, e.g., Table 2.
# full-length beta-catenin = target: T2, full-length beta-catenin; assay: competition FP, grade of FP EC50 (+++: <=100 nM)
# Protocol: In some embodiments, a competition fluorescence polarization assay is used to assess binding of provided compounds to beta-catenin. In an exemplary procedure, solutions of provided compounds, e.g., provided stapled peptides, were prepared in a buffer (e.g., 50 mM Tris pH 8.0, 250 mM NaCl, 2% glycerol, 0.5 mM EDTA, 0.02% w/v sodium azide) using a 3-fold serial dilution from 5 µM. Probe solution (15 nM full-length ß-Catenin, 20 nM FITC labeled peptide in buffer) was prepared and incubated for a period of time, e.g., 5 minutes, and the a volume, e.g., 40 µL per well plated in suitable plate, e.g., a black polystyrene 384-well plate (Corning). Equal volume of the serial diluted peptide was added to the plate and incubated protected from light for 15 minutes prior to read. Reads were performed on a Spectramax M5 (Molecular Devices) in duplicate. Suitable probe was FITC-PEG1-PQ-S5-ILD-S5-HVRRVWR (SEQ ID NO: 1) (hydrocarbon staple formed by two S5 via olefin metathesis) and/or FITC-bA-PQ-S5-ILD-S5-HVRRVWR (SEQ ID NO: 3) (hydrocarbon staple formed by two S5 via olefin metathesis). […] Another peptide, FPO217c (Ac-AR_8ILDAHIM$B5$RVW (SEQ ID NO: 280), with N-terminal proline removed and valine replaced with isoleucine compared to FP0025c) was prepared.
# [3] = Table 3 Part A, read-out: Solubility in DPBS
Molecule,EC50 [1] [nM],FP EC50 (full-length beta-catenin) [nM],other results
"CC[C@H](C)[C@@H]1NC(=O)[C@H](Cc2c[nH]cn2)NC(=O)[C@H](C)NC(=O)[C@H](CC(=O)O)NC(=O)[C@H](CC(C)C)NC(=O)[C@H]([C@@H](C)CC)NC(=O)C2(NC(=O)[C@H](C)NC(C)=O)CN(C2)C(=O)OCC=CCOC(=O)N2CC[C@](C(=O)N[C@@H](CCCNC(=N)N)C(=O)N[C@H](C(=O)N[C@@H](Cc3c[nH]c4ccccc34)C(N)=O)C(C)C)(C2)NC1=O [FP0616c, Ac-A-MA-I-L-D-A-H-I-MC-R-V-W-NH2] (Ac-A[3Aminoazetidine3carboxyl]ILDAHI[X3]RVW-NH2; linker 2-9 via X2)",< 100,–,"solubility ([2]; Table 2, read-out: Solubility): 56 µM; solubility [2, 3]: 56 µM"
"CC[C@H](C)[C@@H]1NC(=O)[C@H](Cc2c[nH]cn2)NC(=O)[C@H](C)NC(=O)[C@H](CC(=O)O)NC(=O)[C@H](CC(C)C)NC(=O)[C@H]([C@@H](C)CC)NC(=O)[C@](C)(NC(=O)[C@H](C)NC(C)=O)CCCCC=CCOC(=O)N(C)CCC[C@@](C)(C(=O)N[C@@H](CCCNC(=N)N)C(=O)N[C@H](C(=O)N[C@@H](Cc2c[nH]c3ccccc23)C(N)=O)C(C)C)NC1=O (single isomer, unassigned) [FP0511c Isomer 1, Ac-A-R6-I-L-D-A-H-I-MH-R-V-W-NH2]",< 100,–,Solubility in DPBS ([2]; Table 3 Part A): 49 (Isomer 1) μM
"CC[C@H](C)[C@@H]1NC(=O)[C@H](Cc2c[nH]cn2)NC(=O)[C@H](C)NC(=O)[C@H](CC(=O)O)NC(=O)[C@H](CC(C)C)NC(=O)[C@H]([C@@H](C)CC)NC(=O)[C@](C)(NC(=O)[C@H](C)NC(C)=O)CCCCC=CCOC(=O)N(C)CCC[C@@](C)(C(=O)N[C@@H](CCCNC(=N)N)C(=O)N[C@H](C(=O)N[C@@H](Cc2c[nH]c3ccccc23)C(N)=O)C(C)C)NC1=O (single isomer, unassigned) [FP0511c Isomer 2, Ac-A-R6-I-L-D-A-H-I-MH-R-V-W-NH2]",< 100,–,Solubility in DPBS ([2]; Table 3 Part A): 24 (Isomer 2) μM
"CC[C@H](C)[C@H](NC(=O)[C@H](Cc1c[nH]cn1)NC(=O)[C@H](C)NC(=O)[C@H](CC(=O)O)NC(=O)[C@H](CC(C)C)NC(=O)[C@@H](NC(=O)C(C)(C)NC(=O)[C@H](C)NC(C)=O)[C@@H](C)CC)C(=O)NC(C)(C)C(=O)N[C@@H](CCCNC(=N)N)C(=O)N[C@H](C(=O)N[C@@H](Cc1c[nH]c2ccccc12)C(N)=O)C(C)C [FP0628_aib, Ac-A-Aib-I-L-D-A-H-I-Aib-R-V-W-NH2] (Ac-A[Aib]ILDAHI[Aib]RVW-NH2)",100 to 500,–,"solubility ([2]; Table 2, read-out: Solubility): 88 µM"
"CC[C@H](C)[C@@H]1NC(=O)[C@H](Cc2c[nH]cn2)NC(=O)[C@H](C)NC(=O)[C@H](CC(=O)O)NC(=O)[C@H](CC(C)C)NC(=O)[C@H]([C@@H](C)CC)NC(=O)[C@](C)(NC(=O)[C@H](C)NC(C)=O)CCCCCC=CCOC(=O)N(C)CC[C@@](C)(C(=O)N[C@@H](CCCNC(=N)N)C(=O)N[C@H](C(=O)N[C@@H](Cc2c[nH]c3ccccc23)C(N)=O)C(C)C)NC1=O [FP0503c, Ac-A-R7-I-L-D-A-H-I-MF-R-V-W-NH2]",100 to 500,–,"solubility ([2]; Table 2, read-out: Solubility): 35 µM; solubility [2, 3]: 35 µM"
"CC[C@H](C)[C@@H]1NC(=O)[C@H](Cc2c[nH]cn2)NC(=O)[C@H](C)NC(=O)[C@H](CC(=O)O)NC(=O)[C@H](CC(C)C)NC(=O)[C@H]([C@@H](C)CC)NC(=O)[C@](C)(NC(=O)[C@H](C)NC(C)=O)CCCCCCC=CCN2CC[C@@](C(=O)N[C@@H](CCCNC(=N)N)C(=O)N[C@H](C(=O)N[C@@H](Cc3c[nH]c4ccccc34)C(N)=O)C(C)C)(C2)NC1=O [FP0217a, Ac-A-R8-I-L-D-A-H-I-MB-R-V-W-NH2] (Ac-A[R8]ILDAHI[X4]RVW-NH2; staple 2-9)",> 5000,–,"solubility ([2]; Table 2, read-out: Solubility): 111 µM; solubility ([2]; Table 3 Part B, amino-stapled product, read-out: Solubility in DPBS): 111 µM"
"CC[C@H](C)[C@@H]1NC(=O)[C@H](Cc2c[nH]cn2)NC(=O)[C@H](C)NC(=O)[C@H](CC(=O)O)NC(=O)[C@H](CC(C)C)NC(=O)[C@H]([C@@H](C)CC)NC(=O)[C@](C)(NC(=O)[C@H](C)NC(C)=O)CCCC=CCOC(=O)N(C)CCC[C@@](C)(C(=O)N[C@@H](CCCNC(=N)N)C(=O)N[C@H](C(=O)N[C@@H](Cc2c[nH]c3ccccc23)C(N)=O)C(C)C)NC1=O (single isomer, unassigned) [FP0510c Isomer 1, Ac-A-R5-I-L-D-A-H-I-MH-R-V-W-NH2]",< 100,–,Solubility in DPBS ([2]; Table 3 Part A): 65 (Isomer 1) μM
AXILDAHIXRVW (not fully specified; Ac-A-ME-I-L-D-A-H-I-S8-R-V-W-NH2; carbamate staple ME/S8) [FP0335c Isomer 2],–,≤ 100,–
Ac-A[R8]ILDAHI[MB(14)]RVW-NH2 [FP0217u],–,≤ 100,–
"Ac-A[R6]ILDAHI[MF]RVW-NH2 (staple 2-9; also: carbamate staple, isomer 1, olefin geometry not assigned, also called FP0502c (Peak 1)) [FP0502c Isomer 1]",–,≤ 100,–
AXILDAHIXRVW (not fully specified; Ac-A-R8-I-L-D-A-H-I-S5-R-V-W-NH2; hydrocarbon staple R8/S5) [FP0217s Isomer 2],–,≤ 100,–
Ac-[R8]ILDAHI[MB(14)]RVW-NH2 (staple 1-8) [FP0220c],–,≤ 100,–
Ac-PA[MC″]ILDAHV[S8]RVW-NH2 (staple 3-10) [FP0005c],–,≤ 100,–
"AXILDAHIXRVW (Ac-A-R8-I-L-D-A-H-I-MB-R-V-W-NH2; carbamate staple R8/MB with the olefin reduced to -CH2-CH2-, also called FPO217rc) [FP0217rc]",–,≤ 100,–
{Biotin-PEG3′}-A[R8]ILDAHI[MB]RVW-NH2 (staple 2-9) [FP0217c_btn],–,≤ 100,–
AXILDAHIXRVW (not fully specified; Ac-A-R8-I-L-D-A-H-I-S5-R-V-W-NH2; hydrocarbon staple R8/S5) [FP0217s Isomer 1],–,≤ 100,–
"Ac-PA[MC″]ILDAHV[S8]RVW-NH2 (staple 3-10; also: amino staple: carbamate CO2 extruded after metathesis, staple: amino staple (-N(R')-, CO2 extruded from carbamate staple)) [FP0006a]",–,≤ 100,–
